Paper PMC7322544, “Combining an in silico proarrhythmic risk assay with a tPKPD model to predict QTc interval prolongation in the anesthetized guinea pig assay” (Toxicology and Applied Pharmacology, 2020)

Test system: QTc interval
Test: Anesthetized cardiovascular guinea pig (CVGP) assay
Type: in vivo
Method: Briefly, male Hartley guinea pigs (BW: 350–500 g) were anesthetized with a bolus mixture of ketamine/xylazine (85/5 mg kg^− 1, IM) then an intravenous (iv) infusion of ketamine/xylazine (40/0.5 mg kg^− 1 h^− 1, to effect). The jugular vein and left carotid arteries were cannulated for test article administration and arterial blood pressure (BP) monitoring and blood collection, respectively. The body surface electrocardiogram (ECG) was measured via subcutaneous needle electrodes to record modified lead-II ECG. After surgery, anesthetized GPs were stabilized for a minimum of 10 min before beginning baseline data collection. Solutions of 3 varying test-article concentrations suitable for administering selected doses were prepared in appropriate vehicles. Vehicle alone or test-article solutions were administered i.v. with each dose level infused over a 20-min period. Each test article and vehicle were evaluated in ≥ n = 3 male anesthetized GPs. Blood sampling for pharmacokinetic analysis was taken at 10 and 19 min of each dose level.

COc1c(N2C[C@@H]3CCCN[C@@H]3C2)c(F)cc2c(=O)c(C(=O)O)cn(C3CC3)c12 [NCE 7, moxifloxacin]
CVGP QTc EC5 (anesthetized guinea pig, free plasma concentration causing 5% increase in QTc interval, > = highest free plasma concentration tested without QTc prolongation): 12 µM
CVGP QTc EC5 (free plasma concentration): 15 µM
Guinea pig QTc EC5 (free plasma concentration giving 5% QTc increase, > = above highest free plasma concentration tested, no QTc prolongation, i.v. infusion): 15 µM
